Reference: PMC10712727, “Safety, Tolerability, and Pharmacokinetics of Senaparib, a Novel PARP1/2 Inhibitor, in Chinese Patients With Advanced Solid Tumors: A Phase I Trial” (The Oncologist, 2023)

Test system: patients with advanced solid tumors
Assay: Safety: treatment-emergent and senaparib-related adverse events graded per NCI CTCAE v4.03
Format: in vivo
Conditions: TEAE
Protocol: This phase I, open-label, multicenter, dose-escalation, and dose-expansion study was conducted at three national clinical institutions in China. […] At baseline, all patients enrolled in the dose-escalation phase had to have at least one evaluable lesion, and those in the dose-expansion period had to have at least one measurable lesion, according to Response Evaluation Criteria in Solid Tumors version 1.1 (RECIST v1.1).[16] Entry to the dose-expansion cohort required the presence of a BRCA mutation, with the exception of patients with ovarian carcinoma, fallopian tube carcinoma, and primary peritoneal carcinoma. Full study eligibility criteria are provided in Supplementary Table S1.
Dose escalation was conducted using a modified Fibonacci 3 + 3 method (Supplementary Fig. S1).[17] Patients were administered oral senaparib from a planned starting dose of 2 mg once daily (QD), with preliminary dose escalation to 120 mg via nine dose groups, in order of their entry into the study. At a given dose level, each patient received a single dose of senaparib followed by a 7-day washout period. They then entered a continuous dosing period to confirm the safety and PK profile, in which they received senaparib QD from day 1 to day 21 of each 3-week cycle. Progression to the next higher dose required approval from the Data Safety Monitoring Committee (DSMC) upon review of the safety and PK data of the previous dose. A 50-mg twice-daily (BID) dosing group was added (planned enrollment, n = 6 patients) based on a DSMC review of the safety, PK, and efficacy analysis of the completed QD dose groups in the phase I clinical trial of senaparib dose escalation in Australia (NCT03507543), which commenced prior to the start of this trial.
The dose-expansion period included 3 populations: dose groups in which at least one patient achieved complete response (CR) or partial response (PR) per RECIST v1.1[16] and 1 dose group higher (evaluated for safety), as well as the dose group at the maximum tolerated dose (MTD)/recommended phase II dose (RP2D). Each of these groups included those patients in the respective dose-escalation group plus a planned additional 10 patients (approximately 20 patients in the MTD/RP2D group) with BRCA^mut+ solid tumors (ovarian, breast, or prostate cancer were preferred, and ovarian cancer could be BRCA wild type). Patients received senaparib monotherapy orally QD or BID (50-mg dose only) over each 3-week cycle until disease progression or unacceptable toxicity.
DLTs were predefined toxicities (Supplementary Table S2) recorded over the 7 days following the single-dose administration of senaparib and during the first treatment cycle (day 1-day 21) for each dose group in the dose-escalation period only. The MTD was defined as the maximum dose at which ≤1/6 patients experienced a DLT. Senaparib PK parameters were derived from blood samples collected from patients after the single administration, and at regular intervals during the first cycle of the dose-escalation and dose-expansion periods. Plasma concentrations of senaparib were determined using high-performance liquid chromatography-tandem mass spectrometry. Tumor response was assessed every 6 weeks per RECIST v1.1,[16] recording objective response rate (ORR), disease control rate (DCR), duration of response (DOR), and progression-free survival (PFS) by dose level for all patients and for those harboring BRCA^mut+ tumors.

## O=C(c1cc(Cn2c(=O)[nH]c(=O)c3c(F)cccc32)ccc1F)N1CCN(c2ncccn2)CC1 [Senaparib]
10 mg QD n = 3
  Vomiting, Gr≥3: 0 n (%)
  WBC decreased, All: 1 (33.3) n (%)
  WBC decreased, Gr≥3: 0 n (%)
20 mg QD n = 5
  ALT increased, All: 0 n (%)
  ALT increased, Gr≥3: 0 n (%)
  AST increased, All: 0 n (%)
  AST increased, Gr≥3: 0 n (%)
  Abdominal distension, All: 1 (20.0) n (%)
  Abdominal distension, Gr≥3: 0 n (%)
  Anemia (incl. hemoglobin decreased), All: 1 (20.0) n (%)
  Anemia (incl. hemoglobin decreased), Gr≥3: 1 (20.0) n (%)
  Appetite decreased, All: 1 (20.0) n (%)
  Appetite decreased, Gr≥3: 0 n (%)
  Asthenia, All: 1 (20.0) n (%)
  Asthenia, Gr≥3: 0 n (%)
  Blood bilirubin increased, All: 0 n (%)
  Blood bilirubin increased, Gr≥3: 0 n (%)
  Blood creatinine increased, All: 1 (20.0) n (%)
  Blood creatinine increased, Gr≥3: 0 n (%)
  Hypokalemia, All: 1 (20.0) n (%)
  Hypokalemia, Gr≥3: 0 n (%)
  Hyponatremia, All: 0 n (%)
  Hyponatremia, Gr≥3: 0 n (%)
  Nausea, All: 1 (20.0) n (%)
  Nausea, Gr≥3: 0 n (%)
  Neutrophil count decreased, All: 0 n (%)
  Neutrophil count decreased, Gr≥3: 0 n (%)
  Pain in extremity, All: 1 (20.0) n (%)
  Pain in extremity, Gr≥3: 1 (20.0) n (%)
  Platelet count decreased, All: 1 (20.0) n (%)
  Platelet count decreased, Gr≥3: 0 n (%)
  Protein in urine, All: 1 (20.0) n (%)
  Protein in urine, Gr≥3: 0 n (%)
  Vomiting, All: 0 n (%)
  Vomiting, Gr≥3: 0 n (%)
  WBC decreased, All: 1 (20.0) n (%)
  WBC decreased, Gr≥3: 0 n (%)
40 mg QD n = 3
  ALT increased, All: 0 n (%)
  ALT increased, Gr≥3: 0 n (%)
  AST increased, All: 0 n (%)
  AST increased, Gr≥3: 0 n (%)
  Abdominal distension, All: 0 n (%)
  Abdominal distension, Gr≥3: 0 n (%)
  Anemia (incl. hemoglobin decreased), All: 1 (33.3) n (%)
  Anemia (incl. hemoglobin decreased), Gr≥3: 0 n (%)
  Appetite decreased, All: 0 n (%)
  Appetite decreased, Gr≥3: 0 n (%)
  Asthenia, All: 1 (33.3) n (%)
  Asthenia, Gr≥3: 0 n (%)
  Blood bilirubin increased, All: 0 n (%)
  Blood bilirubin increased, Gr≥3: 0 n (%)
  Blood creatinine increased, All: 1 (33.3) n (%)
  Blood creatinine increased, Gr≥3: 0 n (%)
  Hypokalemia, All: 0 n (%)
  Hypokalemia, Gr≥3: 0 n (%)
  Hyponatremia, All: 0 n (%)
  Hyponatremia, Gr≥3: 0 n (%)
  Nausea, All: 0 n (%)
  Nausea, Gr≥3: 0 n (%)
  Neutrophil count decreased, All: 0 n (%)
  Neutrophil count decreased, Gr≥3: 0 n (%)
  Pain in extremity, All: 0 n (%)
  Pain in extremity, Gr≥3: 0 n (%)
  Platelet count decreased, All: 0 n (%)
  Platelet count decreased, Gr≥3: 0 n (%)
  Protein in urine, All: 0 n (%)
  Protein in urine, Gr≥3: 0 n (%)
  Vomiting, All: 0 n (%)
  Vomiting, Gr≥3: 0 n (%)
  WBC decreased, All: 0 n (%)
  WBC decreased, Gr≥3: 0 n (%)
50 mg BID n = 4
  ALT increased, All: 1 (25.0) n (%)
  ALT increased, Gr≥3: 0 n (%)
  AST increased, All: 1 (25.0) n (%)
  AST increased, Gr≥3: 0 n (%)
  Abdominal distension, All: 0 n (%)
  Abdominal distension, Gr≥3: 0 n (%)
  Anemia (incl. hemoglobin decreased), All: 3 (75.0) n (%)
  Anemia (incl. hemoglobin decreased), Gr≥3: 2 (50.0) n (%)
  Appetite decreased, All: 0 n (%)
  Appetite decreased, Gr≥3: 0 n (%)
  Asthenia, All: 1 (25.0) n (%)
  Asthenia, Gr≥3: 0 n (%)
  Blood bilirubin increased, All: 0 n (%)
  Blood bilirubin increased, Gr≥3: 0 n (%)
  Blood creatinine increased, All: 0 n (%)
  Blood creatinine increased, Gr≥3: 0 n (%)
  Hypokalemia, All: 0 n (%)
  Hypokalemia, Gr≥3: 0 n (%)
  Hyponatremia, All: 3 (75.0) n (%)
  Hyponatremia, Gr≥3: 1 (25.0) n (%)
  Nausea, All: 2 (50.0) n (%)
  Nausea, Gr≥3: 0 n (%)
  Neutrophil count decreased, All: 0 n (%)
  Neutrophil count decreased, Gr≥3: 0 n (%)
  Pain in extremity, All: 0 n (%)
  Pain in extremity, Gr≥3: 0 n (%)
  Platelet count decreased, All: 1 (25.0) n (%)
  Platelet count decreased, Gr≥3: 0 n (%)
  Protein in urine, All: 0 n (%)
  Protein in urine, Gr≥3: 0 n (%)
  Vomiting, All: 2 (50.0) n (%)
  Vomiting, Gr≥3: 0 n (%)
  WBC decreased, All: 2 (50.0) n (%)
  WBC decreased, Gr≥3: 0 n (%)
60 mg QD n = 5
  ALT increased, All: 0 n (%)
  ALT increased, Gr≥3: 0 n (%)
  AST increased, All: 0 n (%)
  AST increased, Gr≥3: 0 n (%)
  Abdominal distension, All: 2 (40.0) n (%)
  Abdominal distension, Gr≥3: 0 n (%)
  Anemia (incl. hemoglobin decreased), All: 0 n (%)
  Anemia (incl. hemoglobin decreased), Gr≥3: 0 n (%)
  Appetite decreased, All: 1 (20.0) n (%)
  Appetite decreased, Gr≥3: 0 n (%)
  Asthenia, All: 1 (20.0) n (%)
